{"source": "ChEMBL document CHEMBL1146105", "about": "“Synthesis and analgesic activity of secondary amine analogues of pyridylmethylamine and positional isomeric analogues of ABT-594” (Bioorg Med Chem Lett, 2006)", "key": {"[1]": {"assay": "Toxicity in […] at 20 mg/kg, sc assessed as rate of death", "format": "organism-based", "parameters": "dose 20 mg/kg, route subcutaneous", "conditions": "in vivo, read-out: Activity"}, "[2]": {"assay": "Toxicity in […] at 10 mg/kg, sc assessed as rate of death", "format": "organism-based", "parameters": "dose 10 mg/kg, route subcutaneous", "conditions": "in vivo, read-out: Activity"}, "[3]": {"test_system": "Mus musculus", "assay": "Analgesic activity in mice at 20 mg/kg, sc by acetic acid writhing test", "format": "functional", "conditions": "route subcutaneous"}, "[4]": {"test_system": "Mus musculus", "assay": "Analgesic activity in mice at 10 mg/kg, sc by acetic acid writhing test", "format": "functional", "conditions": "route subcutaneous"}, "[5]": {"test_system": "Mus musculus", "assay": "Analgesic activity in mice at 5 mg/kg, sc by acetic acid writhing test", "conditions": "read-out: Inhibition"}, "[6]": {"assay": "Toxicity in rat at 5 mg/kg, sc assessed as rate of death", "conditions": "in vivo"}}}
{"compound": "c1cncc(CNC2CCCC2)c1", "values": [{"measurement": "mortality", "setting": "[1]", "value": 0, "unit": "%"}, {"measurement": "mortality", "setting": "[2]", "value": 0, "unit": "%"}, {"measurement": "inhibition in vivo at 20 mg/kg", "setting": "[3]", "value": 61, "unit": "%"}, {"measurement": "inhibition in vivo at 10 mg/kg", "setting": "[4]", "value": 0, "unit": "%"}]}
{"compound": "CN1CCC[C@H]1c1cccnc1", "note": "[NICOTINE]", "values": [{"measurement": "mortality", "setting": "[1]", "value": 100, "unit": "%"}, {"measurement": "mortality", "setting": "[2]", "value": 50, "unit": "%"}, {"measurement": "inhibition in vivo at 5 mg/kg", "setting": "[5]", "value": 88, "unit": "%"}, {"measurement": "mortality", "setting": "[6]", "value": 25, "unit": "%"}, {"measurement": "inhibition in vivo at 10 mg/kg", "setting": "[4]", "value": 100, "unit": "%"}]}
{"compound": "c1cncc(CNCCC2CCCO2)c1", "note": "(centres undefined)", "values": [{"measurement": "mortality", "setting": "[1]", "value": 0, "unit": "%"}, {"measurement": "mortality", "setting": "[2]", "value": 0, "unit": "%"}, {"measurement": "inhibition in vivo at 20 mg/kg", "setting": "[3]", "value": 23, "unit": "%"}, {"measurement": "inhibition in vivo at 10 mg/kg", "setting": "[4]", "value": 56, "unit": "%"}]}
{"compound": "c1cncc(CNCCc2ccco2)c1", "values": [{"measurement": "mortality", "setting": "[1]", "value": 0, "unit": "%"}, {"measurement": "mortality", "setting": "[2]", "value": 0, "unit": "%"}, {"measurement": "inhibition in vivo at 20 mg/kg", "setting": "[3]", "value": 50, "unit": "%"}, {"measurement": "inhibition in vivo at 10 mg/kg", "setting": "[4]", "value": 0, "unit": "%"}]}
{"compound": "c1cncc(NCC2CO2)c1", "note": "(centres undefined)", "values": [{"measurement": "mortality", "setting": "[1]", "value": 0, "unit": "%"}, {"measurement": "inhibition in vivo at 20 mg/kg", "setting": "[3]", "value": 0, "unit": "%"}]}
{"compound": "Clc1ccc(CNC2CCCC2)cn1", "values": [{"measurement": "mortality", "setting": "[1]", "value": 0, "unit": "%"}, {"measurement": "mortality", "setting": "[2]", "value": 0, "unit": "%"}, {"measurement": "inhibition in vivo at 20 mg/kg", "setting": "[3]", "value": 66, "unit": "%"}, {"measurement": "inhibition in vivo at 10 mg/kg", "setting": "[4]", "value": 37, "unit": "%"}]}
{"compound": "Clc1ccc(CNCCC2CCCO2)cn1", "note": "(centres undefined)", "values": [{"measurement": "mortality", "setting": "[1]", "value": 0, "unit": "%"}, {"measurement": "inhibition in vivo at 20 mg/kg", "setting": "[3]", "value": 35, "unit": "%"}]}
{"compound": "c1ccc(NCCC2CCCO2)nc1", "note": "(centres undefined)", "values": [{"measurement": "mortality", "setting": "[1]", "value": 0, "unit": "%"}, {"measurement": "inhibition in vivo at 20 mg/kg", "setting": "[3]", "value": 0, "unit": "%"}]}
{"compound": "c1ccc(NCCc2ccco2)nc1", "values": [{"measurement": "mortality", "setting": "[1]", "value": 0, "unit": "%"}, {"measurement": "inhibition in vivo at 20 mg/kg", "setting": "[3]", "value": 0, "unit": "%"}]}
{"compound": "Clc1ccc(NCC2CCCO2)cn1", "note": "(centres undefined)", "values": [{"measurement": "mortality", "setting": "[1]", "value": 0, "unit": "%"}, {"measurement": "inhibition in vivo at 20 mg/kg", "setting": "[3]", "value": 0, "unit": "%"}]}
{"compound": "Clc1ccc(NCC2CO2)cn1", "note": "(centres undefined)", "values": [{"measurement": "mortality", "setting": "[1]", "value": 0, "unit": "%"}, {"measurement": "inhibition in vivo at 20 mg/kg", "setting": "[3]", "value": 20.5, "unit": "%"}]}
{"compound": "c1ccc(CNC2CCCC2)nc1", "values": [{"measurement": "mortality", "setting": "[1]", "value": 0, "unit": "%"}, {"measurement": "inhibition in vivo at 20 mg/kg", "setting": "[3]", "value": 0, "unit": "%"}]}
{"compound": "Clc1ccc(CNCCc2ccco2)cn1", "values": [{"measurement": "mortality", "setting": "[1]", "value": 0, "unit": "%"}, {"measurement": "mortality", "setting": "[2]", "value": 0, "unit": "%"}, {"measurement": "inhibition in vivo at 20 mg/kg", "setting": "[3]", "value": 46, "unit": "%"}, {"measurement": "inhibition in vivo at 10 mg/kg", "setting": "[4]", "value": 41, "unit": "%"}]}
